PubChem BioAssay (NCI)
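A five-concentration, 48-hour dose response in 96-well plates underlies each endpoint, interpolated linearly between surrounding concentrations. GI50 marks 50% less growth. TGI marks complete inhibition of growth.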

How the values were obtained:
Test in all cases: DTP human tumour cell line panel, 48 h
[1] = tested on: DU-145 prostate
[2] = tested on: BT-549 breast
[3] = tested on: T-47D breast
[4] = tested on: COLO 205 colon
[5] = tested on: MOLT-4 leukemia
[6] = tested on: UACC-62 melanoma
[7] = tested on: TK-10 renal
[8] = tested on: NCI-H23 lung
[9] = tested on: MCF7 breast
[10] = tested on: RXF 393 renal
[11] = tested on: MALME-3M melanoma
[12] = tested on: OVCAR-8 ovarian
[13] = tested on: HCT-15 colon
[14] = tested on: SK-MEL-28 melanoma
[15] = tested on: HOP-62 NSCLC
[16] = tested on: HCT-116 colon
[17] = tested on: SW-620 colon
[18] = tested on: HOP-92 NSCLC
[19] = tested on: OVCAR-3 ovarian
[20] = tested on: ACHN renal
[21] = tested on: PC-3 prostate
[22] = tested on: RPMI-8226 leukemia
[23] = tested on: SF-295 CNS
[24] = tested on: SF-268 CNS
[25] = tested on: SK-MEL-2 melanoma
[26] = tested on: U251 CNS
[27] = tested on: SNB-19 CNS
[28] = tested on: NCI-H460 lung
[29] = tested on: SK-OV-3 ovarian
[30] = tested on: SR leukemia
[31] = tested on: NCI-H522 lung
[32] = tested on: KM12 colon
[33] = tested on: OVCAR-5 ovarian
[34] = tested on: CCRF-CEM leukemia
[35] = tested on: HCC-2998 colon
[36] = tested on: HT29 colon
[37] = tested on: HL-60(TB) leukemia
[38] = tested on: LOX IMVI melanoma
[39] = tested on: OVCAR-4 ovarian
[40] = tested on: MDA-MB-231 breast
[41] = tested on: UO-31 renal
[42] = tested on: NCI/ADR-RES ovarian
[43] = tested on: 786-0 renal
[44] = tested on: K-562 leukemia
[45] = tested on: NCI-H226 lung
[46] = tested on: HS 578T breast
[47] = tested on: A549 NSCLC
[48] = tested on: UACC-257 melanoma
[49] = tested on: MDA-MB-435
[50] = tested on: IGROV1 ovarian
[51] = tested on: SNB-75 CNS
[52] = tested on: SN12C renal
[53] = tested on: SF-539 CNS
[54] = tested on: CAKI-1 renal
[55] = tested on: SK-MEL-5 melanoma

Cc1ccc(F)cc1NC(=O)c1cc(Cl)ccc1Nc1ccccc1
GI50 [1]: > 100 µM | TGI [1]: > 100 µM | GI50 [2]: > 100 µM | TGI [2]: > 100 µM | GI50 [3]: > 100 µM | TGI [3]: > 100 µM | GI50 [4]: > 100 µM | TGI [4]: > 100 µM | GI50 [5]: 37.9 µM | TGI [5]: > 100 µM | GI50 [6]: > 100 µM | TGI [6]: > 100 µM | GI50 [7]: > 100 µM | TGI [7]: > 100 µM | GI50 [8]: > 100 µM | TGI [8]: > 100 µM | GI50 [9]: > 100 µM | TGI [9]: > 100 µM | GI50 [10]: 74.7 µM | TGI [10]: > 100 µM | GI50 [11]: > 100 µM | TGI [11]: > 100 µM | GI50 [12]: 58.8 µM | TGI [12]: > 100 µM | GI50 [13]: > 100 µM | TGI [13]: > 100 µM | GI50 [14]: > 100 µM | TGI [14]: > 100 µM | GI50 [15]: 79 µM | TGI [15]: > 100 µM | GI50 [16]: > 100 µM | TGI [16]: > 100 µM | GI50 [17]: > 100 µM | TGI [17]: > 100 µM | GI50 [18]: 32 µM | TGI [18]: > 100 µM | GI50 [19]: > 100 µM | TGI [19]: > 100 µM | GI50 [20]: > 100 µM | TGI [20]: > 100 µM | GI50 [21]: > 100 µM | TGI [21]: > 100 µM | GI50 [22]: 51.2 µM | TGI [22]: > 100 µM | GI50 [23]: 56 µM | TGI [23]: > 100 µM | GI50 [24]: > 100 µM | TGI [24]: > 100 µM | GI50 [25]: > 100 µM | TGI [25]: > 100 µM | GI50 [26]: > 100 µM | TGI [26]: > 100 µM | GI50 [27]: > 100 µM | TGI [27]: > 100 µM | GI50 [28]: > 100 µM | TGI [28]: > 100 µM | GI50 [29]: > 100 µM | TGI [29]: > 100 µM | GI50 [30]: > 100 µM | TGI [30]: > 100 µM | GI50 [31]: > 100 µM | TGI [31]: > 100 µM | GI50 [32]: > 100 µM | TGI [32]: > 100 µM | GI50 [33]: > 100 µM | TGI [33]: > 100 µM | GI50 [34]: 20.2 µM | TGI [34]: > 100 µM | GI50 [35]: > 100 µM | TGI [35]: > 100 µM | GI50 [36]: > 100 µM | TGI [36]: > 100 µM | GI50 [37]: > 100 µM | TGI [37]: > 100 µM | GI50 [38]: > 100 µM | TGI [38]: > 100 µM | GI50 [39]: 15.9 µM | TGI [39]: > 100 µM | GI50 [40]: 6.96 µM | TGI [40]: > 100 µM | GI50 [41]: > 100 µM | TGI [41]: > 100 µM | GI50 [42]: > 100 µM | TGI [42]: > 100 µM | GI50 [43]: 52.1 µM | TGI [43]: > 100 µM | GI50 [44]: 67.6 µM | TGI [44]: > 100 µM | GI50 [45]: > 100 µM | TGI [45]: > 100 µM | GI50 [46]: 36.1 µM | TGI [46]: > 100 µM | GI50 [47]: > 100 µM | TGI [47]: > 100 µM | GI50 [48]: > 100 µM | TGI [48]: > 100 µM | GI50 [49]: > 100 µM | TGI [49]: > 100 µM | GI50 [50]: > 100 µM | TGI [50]: > 100 µM | GI50 [51]: 22.7 µM | TGI [51]: > 100 µM | GI50 [52]: > 100 µM | TGI [52]: > 100 µM | GI50 [53]: 40.7 µM | TGI [53]: > 100 µM | GI50 [54]: > 100 µM | TGI [54]: > 100 µM | GI50 [55]: > 100 µM | TGI [55]: > 100 µM
